Residues, ends and D or L forms follow the SMILES beside them.
What was measured:
Assay type in all cases: biochemical
OfHex1 [1] = biological target: T1, OfHex1 (Ostrinia furnacalis, UniProt Q06GJ0); test: fluorescence assay of released 4-methylumbelliferone; settings: read-out: % inhibition at 1 mM
T1 construct: PDB id is that of the docking structure
T1 sequence (Q06GJ0 23-594): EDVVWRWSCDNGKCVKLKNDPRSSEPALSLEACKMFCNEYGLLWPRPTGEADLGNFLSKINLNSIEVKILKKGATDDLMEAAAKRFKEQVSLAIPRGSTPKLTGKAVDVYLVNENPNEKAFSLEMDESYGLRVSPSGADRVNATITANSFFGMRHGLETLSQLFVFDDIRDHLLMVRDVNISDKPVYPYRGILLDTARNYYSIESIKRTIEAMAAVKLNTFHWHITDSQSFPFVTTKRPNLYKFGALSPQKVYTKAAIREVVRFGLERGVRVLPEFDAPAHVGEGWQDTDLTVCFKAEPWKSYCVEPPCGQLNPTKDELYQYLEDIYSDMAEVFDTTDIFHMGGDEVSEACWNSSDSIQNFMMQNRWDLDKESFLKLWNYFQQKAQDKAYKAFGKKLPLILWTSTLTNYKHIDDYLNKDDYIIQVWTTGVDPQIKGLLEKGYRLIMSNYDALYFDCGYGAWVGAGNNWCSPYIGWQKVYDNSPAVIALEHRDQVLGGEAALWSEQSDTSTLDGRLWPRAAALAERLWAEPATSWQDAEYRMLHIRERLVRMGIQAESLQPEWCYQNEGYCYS

OfChtI = biological target: T2, OfChtI (Ostrinia furnacalis, UniProt Q2V6H4); test: as above; settings: read-out: % inhibition at 1 mM
T2 construct: PDB id is that of the docking structure

OfHex1 [2] = biological target: T1, OfHex1; test: fluorescence of released 4-methylumbelliferone; settings: 10 μM substrate, 20 mM sodium phosphate pH 6.0, 30 °C, 30 min
OfChi-h = biological target: T3, OfChi-h (Ostrinia furnacalis, UniProt Q4AE59); test: fluorescence assay of released 4-methylumbelliferone; settings: read-out: % inhibition at 1 mM
T3 construct: PDB id is that of the docking structure
T3 sequence (Q4AE59 18-553): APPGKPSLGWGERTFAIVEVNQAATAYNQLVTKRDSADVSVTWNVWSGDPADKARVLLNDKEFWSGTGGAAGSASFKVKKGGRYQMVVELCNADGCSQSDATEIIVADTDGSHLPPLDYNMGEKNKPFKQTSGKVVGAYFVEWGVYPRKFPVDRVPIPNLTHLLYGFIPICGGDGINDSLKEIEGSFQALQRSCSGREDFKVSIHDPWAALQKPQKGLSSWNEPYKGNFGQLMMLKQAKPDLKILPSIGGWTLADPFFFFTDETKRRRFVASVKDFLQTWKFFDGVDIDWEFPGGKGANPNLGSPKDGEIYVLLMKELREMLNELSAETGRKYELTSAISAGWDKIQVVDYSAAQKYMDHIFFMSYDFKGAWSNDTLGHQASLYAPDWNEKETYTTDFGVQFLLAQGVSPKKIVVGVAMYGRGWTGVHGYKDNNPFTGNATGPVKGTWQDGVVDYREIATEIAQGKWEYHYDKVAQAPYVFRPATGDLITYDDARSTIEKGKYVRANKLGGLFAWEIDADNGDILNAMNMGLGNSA

T2 sequence (Q2V6H4 19-407): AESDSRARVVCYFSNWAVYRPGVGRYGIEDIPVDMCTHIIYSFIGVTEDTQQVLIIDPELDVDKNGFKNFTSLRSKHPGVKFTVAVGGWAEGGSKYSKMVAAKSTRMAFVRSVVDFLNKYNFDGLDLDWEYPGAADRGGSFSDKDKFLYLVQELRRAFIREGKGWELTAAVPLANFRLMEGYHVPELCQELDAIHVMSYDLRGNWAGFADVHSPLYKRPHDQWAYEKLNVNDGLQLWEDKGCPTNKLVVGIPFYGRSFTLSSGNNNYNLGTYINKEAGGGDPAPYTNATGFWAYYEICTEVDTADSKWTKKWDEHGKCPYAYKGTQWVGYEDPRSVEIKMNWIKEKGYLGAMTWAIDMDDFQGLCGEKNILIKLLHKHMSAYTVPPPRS

Structure (SMILES)	inhibition at 1000 µM (OfHex1 [1])	inhibition at 1000 µM (OfChtI)	fluorescence of released 4-methylumbelliferone (OfHex1 [2])	inhibition at 1000 µM (OfChi-h)
N[C@@H](Cc1ccccc1)C(=O)N1CCC[C@H]1C(=O)N[C@@H](Cc1ccc(O)cc1)C(=O)O [FPY] (H-Phe-Pro-Tyr-OH)	< 50%	< 50%		
CC(=O)N[C@H]1[C@H](Oc2ccc3c(C)cc(=O)oc3c2)O[C@H](CO)[C@@H](O)[C@@H]1O [MU-GlcNAc]			the substrate for OfHex1 was MU-GlcNAc	
NC(=O)CC[C@H](N)C(=O)N[C@@H](Cc1c[nH]c2ccccc12)C(=O)N[C@@H](Cc1c[nH]c2ccccc12)C(=O)O [QWW] (H-Gln-Trp-Trp-OH)		55.3%		
N[C@@H](Cc1ccc(O)cc1)C(=O)N[C@@H](Cc1ccccc1)C(=O)N1CCC[C@H]1C(=O)O [YFP] (H-Tyr-Phe-Pro-OH)	< 50%	< 50%		14.8%

Source: PMC12143796, “Virtual screening of a random tripeptide library for easily prepared inhibitors of insect chitinolytic enzymes” (The Cell Surface, 2025)
